Laboratory results as given in US20250381180A1, “METHODS OF TREATING OR PREVENTING OVERACTIVE BLADDER SYNDROME” (Purdue Pharma L.P., priority 2022, published 2025).

Experiments:
[1] = tested on: rhythmic bladder contractions (RBC) in anesthetized female rats; experiment: Isovolumetric model: rhythmic bladder contractions (RBC), cystometry; format: in vivo, rat; conditions: for Inhibition time: after i.v.; for RBC amplitude, basal / RBC frequency, basal: basal period −30/0 min before i.v. administration, group mean
Source text: In rats, under isovolumetric condition, bladder distension induced rhythmic bladder contractions (RBC) (Aizawa et al, (2015) Effects of L-arginine, mirabegron, and oxybutynin on the primary bladder afferent nerve activities synchronized with reflexic, rhythmic bladder contractions in the rat. Neurourology & Urodynamics 34:368-374). This isovolumetric model allows the evaluation of compound on RBC. It is a closed system where the bladder is slowly infused through a urethral catheter with saline until the occurrence of spontaneous rhythmic bladder contractions.
Test substance effects were compared to that of the reference substance, tolterodine, an […], marketed for overactive bladder in humans.
Protocol: • Animals were anesthetized with urethane (i.p.). • Ureters were ligated and sectioned close to the kidneys. • Intravesical catheter was inserted into the bladder though the urinary meatus. • Urinary meatus was closed. • A catheter was inserted into the jugular vein for compound administration. • Bladder was filled with saline until the occurrence of RBC. • After 30 min basal period, compounds were administered as described below. • The effect of the test substances was followed by 1-hour post administration.
Rats were anesthetized with an intraperitoneal administration of urethane (1 g/kg). The ureters were ligated and sectioned close to the kidneys. A catheter (0.30 and 0.70 mm of inner and outer diameters, respectively) was inserted through the urinary meatus into the bladder before urethral ligature. Another catheter (0.58 and 0.96 mm of inner and outer diameters, respectively) was inserted into the jugular vein for intravenous (i.v.) administration.
For all group, animals were treated by i.v. route (1 mL/kg) (slow bolus) after the basal period.
The vesical catheter was connected via a T-tube to a strain gauge (to measure intra-vesical pressure) and to a syringe. Isovolumetric bladder contractions were induced by stepwise injections of physiological saline at room temperature (100 μL every 5 min) until stable RBC occurred. Vesical pressure was continuously recorded. After a 30 min control period (basal values), substances or vehicle were i.v. administered. The effects of substances were followed during 60 min after administration. At the end of the experiments, animals were sacrificed by cervical dislocation.
The following parameters were analyzed: • Amplitude of RBC (mmHg) • Frequency of RBC (number/30 min) • Time of inhibition (sec)
The % variation from the basal values were calculated for RBC frequency and amplitude.
Statistical analysis and graphs were performed using GraphPad Prism® (GraphPad Software Inc., La Jolla, CA, USA). A p value <0.05 was accepted for statistical significance.

[2] = Urine concentrations in humans after a single oral dose; format: in vivo, human; conditions: LLOQ 229 nM
conscious BOO rats = experiment: Cystometric parameters in conscious bladder outlet obstruction (BOO) rats; format: in vivo, rat
Procedure: Test substance effects were compared to those of the reference substance, mirabegron, marketed for overactive bladder.
• At W-6, a partial ligature of the urethra was performed. • At W-6, during 3 consecutive days, rats were treated daily with gentamycin and Ketofen® The bladder was emptied manually once a day. • From W-6 to W-1 animals were monitored and weighed once per week. • At W0 (D-2), catheters were implanted under isoflurane anesthesia. • At D0, cystometry was performed.
Appropriate amount of Cpd (IA) was weighed and dissolved in vehicle to obtain the dosing solution with the target concentration of 3 mg/mL (as free base). […]
[…] Mirabegron (from Kemprotec) was prepared fresh on the day of administration at a final concentration of 2 mg/mL (free base form). Appropriate mass of mirabegron was weighed and dissolved in vehicle (0.5% MC) at room temperature.

[3] = 0/60 min after i.v., Cpd (IA) 3 mg/kg (n=8), tolterodine 1 mg/kg, mean
[4] = 0/60 min after i.v., Cpd (IA) 3 mg/kg, tolterodine 1 mg/kg, mean
[5] = 0/60 min after i.v., Cpd (IA) 3 mg/kg, tolterodine 1 mg/kg, mean, listed as compound of formula (IA)
[6] = listed as compound of formula (IA)
[7] = i.v., Cpd (IA) 3 mg/kg, tolterodine 1 mg/kg, vs basal
[8] = i.v., Cpd (IA) 3 mg/kg, tolterodine 1 mg/kg, vs vehicle
[9] = 3 mg/kg i.v., 0-90 min entire period
[10] = 3 mg/kg i.v., 60-90 min interval period
[11] = i.g., 60-90 min interval period

Question: Which results are given for `O=C(O)c1nc2ccccc2n([C@H]2C[C@H]3CCC[C@@H](C2)N3C2CC3CCCC(C3)C2)c1=O` (some centres unmarked) [Cpd (IA)]?
Answer: RBC amplitude, % variation from basal [1, 3]: 1.25%; RBC amplitude, treated period [1, 3]: 27.57 mmHg; RBC frequency, % variation from basal [1, 4]: ~88.57%; RBC frequency, treated period [1, 4]: 3.05 nb of RBC/30 min; RBC frequency, % variation from basal [1, 5]: -88.57±3.68%; RBC frequency, treated period [1, 5]: 3.05±1.02 nb of RBC/30 min; Inhibition time ([1]; Cpd (IA) 3 mg/kg, tolterodine 1 mg/kg, mean): 2860.51 s; Inhibition time ([1]; Cpd (IA) 3 mg/kg, tolterodine 1 mg/kg, mean, listed as compound of formula (IA)): 2860.51 ± 272.38 s; RBC amplitude, basal [1]: 29.49 mmHg; RBC frequency, basal [1]: 25.90 nb of RBC/30 min; RBC amplitude, basal [1, 6]: 29.49±2.46 mmHg; RBC frequency, basal [1, 6]: 25.90±1.36 nb of RBC/30 min; bladder afferent activity ([1]; conclusion of Example 1): significantly decreased; RBC amplitude, effect versus basal [1, 7]: No significant effect; RBC frequency, effect versus basal [1, 7]: significantly decreased; RBC amplitude (% variation), effect versus vehicle [1, 8]: did not significantly modify; RBC frequency (% variation), effect versus vehicle [1, 8]: significantly decreased; time of inhibition, effect versus vehicle [1, 8]: significantly increased; Urine Conc., mean ([2]; single oral dose 0.2 mg, 16 to 24 h): BCL; Urine Conc., mean ([2]; single oral dose 0.2 mg, 24 to 32 h): BCL; Urine Conc., mean ([2]; single oral dose 0.2 mg, 32 to 40 h): BCL; Urine Conc., mean ([2]; single oral dose 0.2 mg, 40 to 48 h): BCL; Urine Conc., mean ([2]; single oral dose 0.6 mg, 16 to 24 h): BCL; Urine Conc., mean ([2]; single oral dose 0.6 mg, 24 to 32 h): BCL; Urine Conc., mean ([2]; single oral dose 0.6 mg, 32 to 40 h): BCL; Urine Conc., mean ([2]; single oral dose 0.6 mg, 40 to 48 h): BCL; Urine Conc., mean ([2]; single oral dose 2 mg, 16 to 24 h): 409 nM; Urine Conc., mean ([2]; single oral dose 2 mg, 24 to 32 h): BCL; Urine Conc., mean ([2]; single oral dose 2 mg, 32 to 40 h): BCL; Urine Conc., mean ([2]; single oral dose 2 mg, 40 to 48 h): BCL; Urine Conc., mean ([2]; single oral dose 10 mg, 16 to 24 h): 1004 nM; Urine Conc., mean ([2]; single oral dose 10 mg, 40 to 48 h): BCL; AM (mmHg or % variation), effect versus vehicle (conscious BOO rats; [9]): not significantly modified; AM, effect versus basal (conscious BOO rats; [9]): did not significantly modify; BC expressed in % variation from basal, effect versus vehicle (conscious BOO rats; [9]): significantly decreased; BC expressed in mL, effect versus vehicle (conscious BOO rats; [9]): no significant difference; NVC amplitude (mmHg and % variation), effect versus vehicle (conscious BOO rats; [9]): not significantly modified; NVC amplitude, effect versus basal (conscious BOO rats; [9]): did not modify; NVC frequency (NVC/min or % variation), effect versus vehicle (conscious BOO rats; [9]): not significantly modified; NVC frequency, effect versus basal (conscious BOO rats; [9]): did not affect; ThP expressed in mmHg, effect versus vehicle (conscious BOO rats; [9]): not significantly modified; ThP, effect versus basal (conscious BOO rats; [9]): no significant effect; ThP expressed in % variation from basal, effect versus vehicle (conscious BOO rats; 3 mg/kg i.v., 0-90 min entire period, p=0.0504): decreased after Cpd (IA) treatment, the p value was close to the significance; AM (mmHg or % variation), effect versus vehicle (conscious BOO rats; [10]): no effect; AM, effect versus basal (conscious BOO rats; [10]): did not significantly modify; BC (mL and % variation), effect versus vehicle (conscious BOO rats; [10]): no significant difference; NVC amplitude (mmHg and % variation), effect versus vehicle (conscious BOO rats; [10]): not significantly modified; NVC amplitude, effect versus basal (conscious BOO rats; [10]): without any effect; NVC frequency (NVC/min or % variation), effect versus vehicle (conscious BOO rats; [10]): unaffected; NVC frequency, effect versus basal (conscious BOO rats; [10]): no significant effect; ThP expressed in % variation from basal, effect versus vehicle (conscious BOO rats; [10]): significantly decreased; ThP expressed in mmHg, effect versus vehicle (conscious BOO rats; [10]): not significantly modified; ThP, effect versus basal (conscious BOO rats; [10]): significantly decreased; BC, effect versus basal (conscious BOO rats; Cpd (IA) 3 mg/kg i.v., 0-90 min entire period): did not significantly modify; BC, effect versus basal (conscious BOO rats; Cpd (IA) 3 mg/kg i.v., 60-90 min interval period): neither vehicle nor Cpd (IA) had a significant effect; % of variation from basal values of BC (conscious BOO rats; Cpd (IA) 30 mg/kg i.g., 0-90 min entire period, vehicle 11±6): −13±6%; AM (mmHg or % variation), effect versus vehicle (conscious BOO rats; i.g., 0-90 min entire period): not significantly modified; AM, effect versus basal (conscious BOO rats; i.g., 0-90 min entire period): did not significantly modify; BC expressed in % variation from basal, effect versus vehicle (conscious BOO rats; i.g., 0-90 min entire period): significantly decreased; BC expressed in mL, effect versus vehicle (conscious BOO rats; i.g., 0-90 min entire period): no significant difference; NVC amplitude expressed in % variation from basal, effect versus vehicle (conscious BOO rats; i.g., 0-90 min entire period): remained unaffected; NVC amplitude expressed in mmHg, effect versus vehicle (conscious BOO rats; i.g., 0-90 min entire period): not significantly modified; NVC amplitude, effect versus basal (conscious BOO rats; i.g., 0-90 min entire period): did not modify; NVC frequency (NVC/min or % variation), effect versus vehicle (conscious BOO rats; i.g., 0-90 min entire period): not significantly modified; NVC frequency, effect versus basal (conscious BOO rats; i.g., 0-90 min entire period): did not affect; ThP expressed in % variation from basal, effect versus vehicle (conscious BOO rats; i.g., 0-90 min entire period): significantly decreased; ThP expressed in mmHg, effect versus vehicle (conscious BOO rats; i.g., 0-90 min entire period): not significantly modified; ThP, effect versus basal (conscious BOO rats; i.g., 0-90 min entire period): did not modify; AM (mmHg or % variation), effect versus vehicle (conscious BOO rats; [11]): no effect; AM, effect versus basal (conscious BOO rats; [11]): did not significantly modify; BC expressed in % variation from basal, effect versus vehicle (conscious BOO rats; [11]): significantly decreased; BC expressed in mL, effect versus vehicle (conscious BOO rats; [11]): no significant difference; NVC amplitude expressed in % variation from basal, effect versus vehicle (conscious BOO rats; [11]): not significantly modified; NVC amplitude expressed in mmHg, effect versus vehicle (conscious BOO rats; [11]): not significantly modified; NVC amplitude, effect versus basal (conscious BOO rats; [11]): without any effect; NVC frequency (NVC/min or % variation), effect versus vehicle (conscious BOO rats; [11]): unaffected; NVC frequency, effect versus basal (conscious BOO rats; [11]): did not affect; ThP expressed in % variation from basal, effect versus vehicle (conscious BOO rats; [11]): significantly decreased; ThP expressed in mmHg, effect versus vehicle (conscious BOO rats; [11]): not significantly modified; ThP, effect versus basal (conscious BOO rats; [11]): significantly decreased; BC, effect versus basal (conscious BOO rats; i.g., Cpd (IA) 30 mg/kg, mirabegron 10 mg/kg, 0-90 min entire period): significantly decreased; BC, effect versus basal (conscious BOO rats; i.g., Cpd (IA) 30 mg/kg, mirabegron 10 mg/kg, 60-90 min interval period): significantly decreased; all other cystometric parameters (than BC and ThP), effect versus vehicle (conscious BOO rats; i.v., conclusions): no effect
